Laboratory results: patent US20030232986A1, “Inhibitors of caspases” (Vertex Pharmaceuticals Incorporated, priority 1998, published 2003)

Columns and labels:
Caspase-1 = target: T1, Caspase-1 (Homo sapiens, UniProt P29466); experiment: Caspase-1 enzyme inhibition (Ki); type: biochemical; conditions: substrate Suc-YVAD-pNA 80 μM, 37° C., pH 7.5
T1 sequence (P29466 120-297 limits assumed): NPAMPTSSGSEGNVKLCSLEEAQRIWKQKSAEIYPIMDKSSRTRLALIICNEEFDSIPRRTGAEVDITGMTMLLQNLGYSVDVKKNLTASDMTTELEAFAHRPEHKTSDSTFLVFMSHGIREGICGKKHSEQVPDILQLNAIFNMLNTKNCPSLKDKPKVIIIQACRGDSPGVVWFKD
T1 sequence (P29466 317-404 limits assumed): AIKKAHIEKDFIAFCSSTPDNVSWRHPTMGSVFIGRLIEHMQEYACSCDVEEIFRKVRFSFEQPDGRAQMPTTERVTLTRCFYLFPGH
Method: Ki values for test compounds with the various caspases were obtained by the method of Margolin et al. (J. Biol. Chem., 272 pp. 7223-7228 (1997)). Assays were performed in 10 mM Tris (Sigma Corp, St Louis Mo.) pH 7.5, 1 mM Dithiothreitol (DTT, Research Organic INC, Cleveland, Ohio) and 0.1% CHAPS (Pierce, Rockford Ill.) at 37° C. For caspase-3, a solution of 8% glycerol was added to the assay buffer to improve enzyme stability. A 65 μL aliquot of the assay buffer and 5 μL aliquot of the appropriate dilutions of inhibitor in DMSO where pipetted into a 96 well plate, treated with 10 μL of caspase, then diluted in assay buffer (0.5-40 nM active protein by active site titration). A control containing DMSO but no compound was included for each determination. The plates were then incubated for 15 minutes at 37° C., before addition of the appropriate substrate (20 μL, final concentration 1-4×KM, final assay volume 100 μL) to initiate the reaction. Reaction rates were measured at 37° C. either by following the time dependant increase in absorbance at 405 nm (for the pNA substrates) or in fluorescence (Ex 390, Em 460) (for the AMC substrates). The rates obtained were plotted against inhibitor concentration and the data fit to the Morrison tight-binding equation for competitive inhibitors (Morrison, J. F., Biochem. Biophys. Acta, 185 pp. 269-286 (1969)). The substrates used for the individual assays were as follows:
Caspase-1 Suc-YVAD-pNA (Bachem, King of Prussia, Pa.) (final concentration in the assay 80 μM),

[1] = system: Human Peripheral Blood Mononuclear Cells (PBMC), mature IL-1β; experiment: PBMC cell assay: IL-1β assay with human peripheral blood mononuclear cells; type: cell-based; conditions: LPS-stimulated human PBMC, mature IL-1β in supernatant by ELISA
Source text: IL-1β Assay with a Mixed Population of Human Peripheral Blood Mononuclear Cells (PBMC) or Enriched Adherent Mononuclear Cells
Processing of pre-IL-1β by ICE can be measured in cell culture using a variety of cell sources. Human PBMC obtained from healthy donors provides a mixed population of lymphocyte subtypes and mononuclear cells that produce a spectrum of interleukins and cytokines in response to many classes of physiological stimulators. Adherent mononuclear cells from PBMC provides an enriched source of normal monocytes for selective studies of cytokine production by activated cells.
An initial dilution series of test compound in DMSO or ethanol is prepared, with a subsequent dilution into RPMI-10% FBS media (containing 2 mM L-glutamine, 10 mM HEPES, 50 U and 50 ug/ml pen/strep) respectively to yield drugs at 4× the final test concentration containing 0.4% DMSO or 0.4% ethanol. The final concentration of DMSO is 0.1% for all drug dilutions. A concentration titration which brackets the apparent Ki for a test compound determined in an ICE inhibition assay is generally used for the primary compound screen.
Generally 5-6 compound dilutions are tested and the cellular component of the assay is performed in duplicate, with duplicate ELISA determinations on each cell culture supernatant.
Buffy coat cells isolated from one pint human blood (yielding 40-45 ml final volume plasma plus cells) are diluted with media to 80 ml and LeukoPREP separation tubes (Becton Dickinson) are each overlaid with 10 ml of cell suspension. After 15 min centrifugation at 1500-1800×g, the plasma/media layer is aspirated and then the mononuclear cell layer is collected with a Pasteur pipette and transferred to a 15 ml conical centrifuge tube (Corning). Media is added to bring the volume to 15 ml, gently mix the cells by inversion and centrifuge at 300×g for 15 min. The PBMC pellet is resuspended in a small volume of media, the cells are counted and adjusted to 6×10^6 cells/ml.
For the cellular assay, 1.0 ml of the cell suspension is added to each well of a 24-well flat bottom tissue culture plate (Corning), 0.5 ml test compound dilution and 0.5 ml LPS solution (Sigma #L-3012; 20 ng/ml solution prepared in complete RPMI media; final LPS concentration 5 ng/ml). The 0.5 ml additions of test compound and LPS are usually sufficient to mix the contents of the wells. Three control mixtures are run per experiment, with either LPS alone, solvent vehicle control, and/or additional media to adjust the final culture volume to 2.0 ml. The cell cultures are incubated for 16-18 hr at 37° C. in the presence of 5% CO2.
At the end of the incubation period, cells are harvested and transferred to 15 ml conical centrifuge tubes. After centrifugation for 10 min at 200×g, supernatants are harvested and transferred to 1.5 ml Eppendorf tubes. It may be noted that the cell pellet may be utilized for a biochemical evaluation of pre-IL-1β and/or mature IL-1β content in cytosol extracts by Western blotting or ELISA with pre-IL-1β specific antisera.
PBMC are isolated and prepared as described above. Media (1.0 ml) is first added to wells followed by 0.5 ml of the PBMC suspension. After a one hour incubation, plates are gently shaken and nonadherent cells aspirated from each well. Wells are then gently washed three times with 1.0 ml of media and final resuspended in 1.0 ml media. The enrichment for adherent cells generally yields 2.5-3.0×10^5 cells per well. The addition of test compounds, LPS, cell incubation conditions and processing of supernatants proceeds as described above.
Quantikine kits (R&D Systems) may be used for the measurement of mature IL-1β. Assays are performed according to the manufacturer's directions. Mature IL-1β levels of about 1-3 ng/ml in both PBMC and adherent mononuclear cell positive controls are observed. […]

[2] = system: Human whole blood, IL-1β production; experiment: Whole blood assay for IL-1β production; type: cell-based; conditions: LPS-stimulated whole blood, IL-1β by ELISA
Method: The whole blood assay is a simple method for measuring the production of IL-1β (or other cytokines) and the activity of potential inhibitors. The complexity of this assay system, with its full complement of lymphoid and inflammatory cell types, spectrum of plasma proteins and red blood cells is an ideal in vitro representation of human in vivo physiologic conditions.
Set incubator or water bath at 30° C. Aliquot 0.25 ml of blood into 1.5 ml eppendorf tubes. Note: be sure to invert the whole blood sample tubes after every two aliquots. Differences in replicates may result if the cells sediment and are not uniformly suspended. Use of a positive displacement pipette will also minimize differences between replicate aliquots.
Prepare drug dilutions in sterile pyrogen-free saline by serial dilution. A dilution series which brackets the apparent Ki for a test compound determined in an ICE inhibition assay is generally used for the primary compound screen. For extremely hydrophobic compounds, prepare compound dilutions in fresh plasma obtained from the same blood donor or in PBS-containing 5% DMSO to enhance solubility.
Add 25 μl test compound dilution or vehicle control and gently mix the sample. Then add 5.0 μl LPS solution (250 ng/ml stocked prepared fresh: 5.0 ng/ml final concentration LPS), and mix again. Incubate the tubes at […] in a water bath for 16-18 hr with occasional mixing. Alternatively, the tubes can be placed in a rotator set at 4 rpm for the same incubation period. This assay should be set up in duplicate or triplicate with the following controls: negative control—no LPS; positive control—no test inhibitor; vehicle control—the highest concentration of DMSO or compound solvent used in the experiment. Additional saline is added to all control tubes to normalize volumes for both control and experimental whole blood test samples.
After the incubation period, whole blood samples are centrifuged for 10 minutes at ^˜2000 rpm in the microfuge, plasma is transferred to a fresh microfuge tube and centrifuged at 1000×g to pellet residual platelets if necessary. Plasma samples may be stored frozen at −70° C. prior to assay for cytokine levels by ELISA.
R & D Systems (614 McKinley Place N.E. Minneapolis, Minn. 55413) Quantikine kits may be used for measurement of IL-1β and TNF-α. The assays are performed according to the manufacture's directions. IL-1β levels of ^˜1-5 ng/ml in positive controls among a range of individuals may be observed. A 1:200 dilution of plasma for all samples is usually sufficient for experiments for ELISA results to fall on the linear range of the ELISA standard curves. It may be necessary to optimize standard dilutions if you observe differences in the whole blood assay. Nerad, J. L. et al., J. Leukocyte Biol., 52, pp. 687-692 (1992).

Row | Structure (SMILES) | Ki (Caspase-1) [nM] | IC50 [2] [nM] | IC50 [1] [nM]
1 | COc1c(Cl)cc(C(=O)N[C@H](C(=O)N2CCC[C@H]2C(=O)N[C@H](C=O)CC(=O)O)C(C)C)cc1Cl [Example 5al] | < 10 | – | > 2000
2 | CC(C)[C@H](NC(=O)c1ccc(C(C)(C)C)cc1)C(=O)N1CCC[C@H]1C(=O)N[C@H](C=O)CC(=O)O [Example 5am] | < 10 | – | > 2000
3 | CCCN(CCC)S(=O)(=O)c1ccc(C(=O)N[C@H](C(=O)N2CCC[C@H]2C(=O)N[C@H](C=O)CC(=O)O)C(C)C)cc1 [Example 5ao] | 10 to 1000 | – | > 2000
4 | CC(C)[C@H](NC(=O)c1csc(C2COc3ccccc3O2)n1)C(=O)N1CCC[C@H]1C(=O)N[C@H](C=O)CC(=O)O (stereo partly drawn) [Example 5aq] | 10 to 1000 | – | > 2000
5 | Cc1nn(C)c2ncc(C(=O)N[C@H](C(=O)N3CCC[C@H]3C(=O)N[C@H](C=O)CC(=O)O)C(C)C)c(SC(C)C)c12 [Example 5ar] | < 10 | – | > 2000
6 | CC(C)[C@H](NC(=O)c1ccc2ncsc2c1)C(=O)N1CCC[C@H]1C(=O)N[C@H](C=O)CC(=O)O [Example 5as] | < 10 | – | > 2000
7 | CCCc1c(C(=O)N[C@H](C(=O)N2CCC[C@H]2C(=O)N[C@H](C=O)CC(=O)O)C(C)C)cnn1-c1ccc(Cl)cc1 [Example 5at] | 10 to 1000 | – | > 2000
8 | Cc1oc(-c2ccccc2)cc1C(=O)N[C@H](C(=O)N1CCC[C@H]1C(=O)N[C@H](C=O)CC(=O)O)C(C)C [Example 5au] | 10 to 1000 | – | > 2000
9 | CC(C)[C@H](NC(=O)c1ccc(CSc2ccccn2)o1)C(=O)N1CCC[C@H]1C(=O)N[C@H](C=O)CC(=O)O [Example 5av] | 10 to 1000 | – | > 2000
10 | COc1cccc(Oc2ccc(OC)cc2C(=O)N[C@H](C(=O)N2CCC[C@H]2C(=O)N[C@H](C=O)CC(=O)O)C(C)C)c1 [Example 5aw] | < 10 | – | 1000 to 2000
11 | CC(C)[C@H](NC(=O)c1ccccc1-c1ccc(C(F)(F)F)cc1)C(=O)N1CCC[C@H]1C(=O)N[C@H](C=O)CC(=O)O [Example 5ba] | < 10 | – | 1000 to 2000
12 | CCCc1ccc(-c2ccc(C(=O)N[C@H](C(=O)N3CCC[C@H]3C(=O)N[C@H](C=O)CC(=O)O)C(C)C)cc2)cc1 [Example 5bd] | < 10 | – | 1000 to 2000

Second part, led by results:

Row | Ki (Caspase-1) [nM] | IC50 [2] [nM] | Structure (SMILES) | IC50 [1] [nM]
13 | < 10 | 2500 to 7500 | C[C@H](NC(=O)c1c(F)c(F)c(N)c(F)c1F)C(=O)N1CCC[C@H]1C(=O)N[C@H](C=O)CC(=O)O [Example 122p, 3-({1-[2-(4-Amino-2,3,5,6-tetrafluoro-benzoylamino)-propionyl]-pyrrolidine-2-carbonyl}-amino)-4-oxo-butyric acid] | –
14 | 10 to 1000 | 2500 to 7500 | C[C@H](NC(=O)c1ccc2ncccc2c1)C(=O)N1CCC[C@H]1C(=O)N[C@H](C=O)CC(=O)O [Example 122q, 4-Oxo-3-[(1-{2-[(quinoline-6-carbonyl)-amino]-propionyl}-pyrrolidine-2-carbonyl)-amino]-butyric acid] | –
15 | 10 to 1000 | 2500 to 7500 | C[C@H](NC(=O)c1ccc(NC(=O)C(C)(C)C)c(Cl)c1)C(=O)N1CCC[C@H]1C(=O)N[C@H](C=O)CC(=O)O [Example 122s, 3-[(1-{2-[3-Chloro-4-(2,2-dimethyl-propionylamino)-benzoylamino]-propionyl}-pyrrolidine-2-carbonyl)-amino]-4-oxo-butyric acid] | –
16 | 10 to 1000 | < 2500 | CC(NC(=O)c1ccc(N)c(Cl)c1)C(=O)N1CC(F)CC1C(=O)NC(C=O)CC(=O)O (stereo not drawn) [Example 123a, 3-({1-[2-(4-Amino-3-chloro-benzoylamino)-propionyl]-4-fluoro-pyrrolidine-2-carbonyl}-amino)-4-oxo-butyric acid] | –
17 | 10 to 1000 | 2500 to 7500 | CC(=O)Nc1ccc(C(=O)NC(C)C(=O)N2CC(F)(F)CC2C(=O)NC(C=O)CC(=O)O)cc1Cl (stereo not drawn) [Example 123b, 3-({1-[2-(4-Acetylamino-3-chloro-benzoylamino)-propionyl]-4,4-difluoro-pyrrolidine-2-carbonyl}-amino)-4-oxo-butyric acid] | –
18 | 10 to 1000 | 2500 to 7500 | Nc1ccc(C(=O)NCC(=O)N2CC(F)(F)C[C@H]2C(=O)N[C@H](C=O)CC(=O)O)cc1Cl [Example G2, 3-({1-[(4-Amino-3-chloro-benzoylamino)-acetyl]-4,4-difluoro-pyrrolidine-2-carbonyl}-amino)-4-oxo-butyric acid] | –
